Reference: US20200022995A1, “Novel Immunodulating Small Molecules” (AyuVis Research, Inc., priority 2018, published 2020)
≈ marks a conversion by molar mass, not a printed value.

Key:
[1] = tested on: E. coli, P. aeruginosa, A. baumanni, MRSA; test: Broth dilution assay against gram negative and gram positive bacteria; type: cell-based
TLR7/8 = test: IL-1β ELISA in hPBMC, alone or with TLR7/8 ligand CL075; type: cell-based, human
Text: Compound 8 modulates the TLR7/8 activities in a concentration dependent manner.

neonatal pups with BPD [2] = test: Hyperoxia mouse model of BPD (newborn pups); type: in vivo
[3] = tested on: hyperoxia-induced lung injury in mice; test: Hyperoxia induced ALI model; type: in vivo, C57BL/6 mice; settings: IP, 10 mg/kg
Procedure: (§1) Male C57BL/6 mice (Jackson Laboratories,) 12-15 weeks old, 25-28 gms, housed up to 5 per cage were used.
Hyperoxia induced ALI model: The ARDS model consists of exposing adult mice in 100% oxygen for 48 h followed by injecting with test compounds. Adult mice (N=5) were housed in plexi chamber with a constant and continuous supply of 100% oxygen for 48 h. […] The mice were sacrificed after 48 h to harvest lung tissues and collect (BAL) fluid.

HUVECs = test: Anti-angiogenic activity, VEGF induced tube formation in HUVECs; type: cell-based, human; settings: VEGF 100 ng/mL
Procedure: Selected TLR2/4 antagonist compounds 2, 6, 7, 8, 14, 17 and 32 were evaluated for anti-angiogenic activity using the Tube Formation kit (Cat #3470-096-K). VEGF (100 ng/mL) was used as positive control. These compounds have potential applications in diseases associated with pathological angiogenesis such as solid tumor, […], diabetic retinopathy as well as AMD.

hPBMC = test: Cytotoxicity in hPBMC (MTT); type: cell-based, human; settings: 0.1, 1.0, 10, 100 and 1000 μM, 24 h
Procedure: The cells were treated with compounds and incubated for 24 h. Cell viability was assessed using MTT cell proliferation kit (Promega). All the compounds were not toxic to hPMBC (FIG. 12).

TLR4 [4] = molecular target: T1, TLR4 (Homo sapiens, UniProt O00206); test: TLR4 inhibitory and activating activity in THP-1 cells; type: cell-based; design: endogenous in cells; host or cells: THP-1 monocytes, PMA-stimulated
T1 sequence (O00206 24-839): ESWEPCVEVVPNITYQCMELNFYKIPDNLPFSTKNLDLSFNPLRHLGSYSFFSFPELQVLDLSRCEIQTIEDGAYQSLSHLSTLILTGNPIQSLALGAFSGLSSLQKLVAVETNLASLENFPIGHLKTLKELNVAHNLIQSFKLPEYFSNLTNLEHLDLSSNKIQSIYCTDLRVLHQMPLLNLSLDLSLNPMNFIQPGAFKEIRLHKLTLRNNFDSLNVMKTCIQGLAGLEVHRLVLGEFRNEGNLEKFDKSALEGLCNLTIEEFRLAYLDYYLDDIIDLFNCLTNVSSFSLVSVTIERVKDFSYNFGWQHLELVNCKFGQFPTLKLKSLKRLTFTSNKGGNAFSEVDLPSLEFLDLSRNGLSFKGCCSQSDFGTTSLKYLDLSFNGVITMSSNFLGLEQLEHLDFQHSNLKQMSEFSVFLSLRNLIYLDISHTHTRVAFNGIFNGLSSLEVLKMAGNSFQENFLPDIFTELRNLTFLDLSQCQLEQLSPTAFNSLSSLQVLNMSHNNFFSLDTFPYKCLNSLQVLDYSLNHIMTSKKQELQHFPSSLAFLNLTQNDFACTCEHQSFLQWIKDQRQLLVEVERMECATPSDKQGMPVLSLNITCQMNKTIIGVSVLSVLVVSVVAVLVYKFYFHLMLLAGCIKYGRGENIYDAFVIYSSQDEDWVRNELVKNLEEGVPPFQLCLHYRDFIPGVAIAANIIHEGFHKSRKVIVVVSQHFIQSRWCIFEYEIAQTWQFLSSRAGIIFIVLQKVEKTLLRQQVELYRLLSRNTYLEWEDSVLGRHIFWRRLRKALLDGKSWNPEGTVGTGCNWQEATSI

TLR4 [5] = molecular target: T1, TLR4; test: IL-1β ELISA in hPBMC, alone or with TLR4 ligand LPS; type: cell-based; design: endogenous in cells
Text: Compound 8 modulates the TLR4 activities in a concentration dependent manner.

[6] = tested on: P. aeruginosa (ATCC-10145 GFP) infected skin wounds; test: Murine skin wound infection with P. aeruginosa; type: in vivo, C57BL/6 mice
Procedure: Five groups of C57BL/6 mice (8-10 weeks old, n=4) were wounded on the dorsal surface. 25 ul containing 10^6 CFU/mL P. aeruginosa in a PBS suspension were pipetted onto the wound and allowed to absorb for at least 3 min. […] Subsequently and for the next 13 days, infected wounds were treated each alternate day with colistin, or with test compounds.

[7] = tested on: LPS-induced lung injury in mice; test: LPS-induced ALI model; type: in vivo, C57BL/6 mice; settings: IP
Text: as §1
The lungs were sectioned for histopathological assessment after H/E staining while the BAL fluid was used to detect total cell counts (neutrophils and macrophages) and measure protein (that exudes by leakage).

neonatal pups with BPD [8] = test: Hyperoxia mouse model of BPD (newborn pups); type: in vivo; remark: listed apart in the source
Text: Neonatal mice and humans undergo similar stages of lung development but differ with respect to the duration of each stage and its temporal relationship to gestational age. The lungs of the mouse born at term are in the saccular stage and are surfactant sufficient; this can be considered somewhat akin to a human preterm neonate in the same stage of lung development that has been exposed to a full complement of antenatal steroids (which is known to enhance surfactant production). In terms of mimicking the human condition, the most successful hyperoxia models are those that limit exposure to hyperoxia to the saccular stage of pulmonary development. The mouse BPD model involves exposing newborn mice (postnatal day 1 or PN1) to 100% oxygen till PN4 followed by recovery in room air (RA) for another 10 days.
After the recovery period, their lungs were harvested and processed for quantitative PCR, western blotting, histopathology and ELISA.
Each of the compounds 3, 8 or 32 encapsulated in PLGA nanoparticles referred as 3NP, 8NP and 32NP was instilled intranasally (IN) as nanosuspension to newborn pups on PN2 and PN4 at different doses (FIG. 28). After the recovery period, their lungs were harvested and processed for quantitative PCR, western blotting and histopathology and ELISA.
BPD is characterized by large simplified alveoli, inflammation, increased cell death, decreased cell proliferation, dysmorphic capillary configuration, and variable interstitial cellularity and/or fibroproliferation. […] This is determined by measuring the alveolar chord length, septal thickness and radial alveolar count (RAC). In BPD, the alveolar area increases which is characterized by increase in the diameter of the alveolar sacs, the septa become thickened (thus interfering in gaseous exchange) and the RAC, a parameter used to assess the complexity of terminal respiratory unit by pulmonologists, decreases as a result of arrested lung development.

SMILES: CC(=O)N[C@H]1[C@H](Oc2ccc([N+](=O)[O-])cc2)O[C@H](CO)[C@@H](O)[C@@H]1O [Compound 8, p-Nitrophenyl 2-acetamido-2-deoxy-β-D-glucopyranoside]
- MIC90 ([1]; compound alone, range over the bacteria screened): 50 to 200 µg/mL (≈ 146 to 584 µM)
- MIC ([1]; in combination with colistin): 3.1 to 6.25 µg/mL
- IL-1β protein level (TLR7/8; 0.1 μM to <1 μM, alone or with CL075, hPBMC, 24 h, ELISA): downregulate
- production of IL-1β (TLR7/8; 1.0 μM, alone and with CL075, hPBMC): significantly stimulated
- hyperoxia induced BPD in mouse pups (neonatal pups with BPD [2]; IP and IV, saline solution, 5 mg/kg or 10 mg/kg on PN2 and PN4): prevent
- chord length, septal thickness and radial alveolar count of mouse lungs (neonatal pups with BPD [2]; IP injection): improvement
- inflammatory cytokines in lung tissue and serum (neonatal pups with BPD [2]; after injection): decreased
- protection against hyperoxia induced lung injury ([3]; 100% oxygen 48 h): significant protection
- hyperoxia-induced lung inflammation ([3]; mice): ameliorated
- VEGF induced tube formation (HUVECs): significantly deceased
- cytotoxicity in hPBMC (hPBMC): not toxic
- TLR2/4 antagonist or TLR4 agonist activity as shown in Table-1 (TLR4 [4]): potent TLR2/4 antagonists
- IL-1β protein level (TLR4 [5]; 0.1 μM to <1 μM, alone or with LPS, 24 h, ELISA): downregulate
- production of IL-1β (TLR4 [5]; 1.0 μM, alone and with LPS): significantly stimulated
- wound closure at day 13 ([6]; 25 μl Colistin 4 μg/ml or compound 100 μg/ml, each alternate day): complete closure
- bacterial numbers versus untreated control ([6]; 13 days post infection): statistically significant reduction
- re-epithelialization and granulation tissue versus controls ([6]; H&E histology, day 13 post-injury): borderline non-significant
- CFU in tissues ([6]; topical, 100 μM, C57BL6 mice): decreased
- closure of P. aeruginosa infected skin wounds ([6]; topical, 100 μM, C57BL6 mice): effectively closed
- protection against LPS induced lung injury ([7]; 10 mg/kg at 4 h and 12 h post LPS): significant protection
- LPS-induced lung inflammation ([7]; 10 mg/kg, mice): ameliorated
- anti-inflammatory cytokine IL-10 (neonatal pups with BPD [8]; 10 mg/kg, ELISA): increase
- inflammatory cytokines and chemokines (MIP-2, MCP-1, IL-17, IFN-Y, TNF-α, IL-1β, and IL-6) (neonatal pups with BPD [8]; 10 mg/kg, ELISA): decreases
- lung injury in neonatal pups with BPD (neonatal pups with BPD [8]; mouse model of BPD): prevent lung injury
- TLR4 inhibition in an in vivo model system (neonatal pups with BPD [8]; neonatal pups with BPD): inhibit TLR4
- lung architecture (neonatal pups with BPD [8]; saline IV and nanosuspension IN): restored
